From patent US9757368B2, “Anti-inflammatory agents” (Resverlogix Corp., priority 2009, dated 2017) come the findings set out here.

The test system of one experiment is hIL-6 mRNA. Briefly: Quantification of hIL-6 mRNA in LPS-stimulated U937 macrophages (real-time PCR). The format is cell-based, human. On the set-up: key: Active: an active compound is one that causes a ≧20% inhibition in IL-6 mRNA at a concentration less than or equal to 10 μM. Conditions: U937 cells differentiated with PMA, 1 h pretreatment, LPS 1 μg/mL, 3 h; IL-6 mRNA normalised to hCyclophilin; compound ≤10 μM. On the procedure:
In this example, hIL-6 mRNA in tissue culture cells was quantitated to measure the transcriptional inhibition of hIL-6 when treated with a compound of the invention.
A human leukemic monocytic lymphoma cell line (U937) was plated (3.2×10^5 cells per well) in a 96-well plate in 100 μL RPMI 1640+10% FBS, and differentiated into macrophages with PMA (60 ng/mL) for 3 days prior to the addition of the compound of interest. The cells were pretreated for 1 h with the test compound in DMSO prior to stimulation with lipopolysaccharide from Escherichia coli at 1 μg/mL. The cells were incubated for 3 h before harvest. At the time of harvest, cells were rinsed in 200 μL PBS. Cell lysis solution (70 μL) was added the cells for 10 min, and mRNA was then prepared using the “mRNA Catcher PLUS plate” (Invitrogen), according to the protocol supplied.
The eluted mRNA isolated was then used in a one-step quantitative real-time PCR reaction, using components of the UltraSense kit together with Applied Biosystems primer-probe mixes. 10 μL of template was amplified with 1.75 μL of IL-6 primer-probe, and 1 μL of hCyclophilin primer probe, and the reaction was carried out in multiplex. Real-time PCR data was analyzed, normalizing the Ct values for hIL-6 to hCyclophilin, prior to determining the fold induction of each unknown sample, relative to the control.

The next experiment concerns hVCAM-1 mRNA. Briefly: Quantification of hVCAM-1 mRNA in TNF-α-stimulated HUV-EC-C cells (real-time PCR). Conditions: 1 h pretreatment, TNF-α 10 ng/mL, 24 h, VCAM-1 mRNA normalised to hCyclophilin, compound ≤10 μM. The class given is cell-based, human. On the set-up: key: Active: an active compound is one that causes a ≧20% inhibition in VCAM-1 mRNA at a concentration less than or equal to 10 μM. As to the method: In this example, hVCAM-1 mRNA in tissue culture cells was quantitated to measure the transcriptional inhibition of hVCAM when treated with a compound of the invention.
A human umbilical vein endothelial cell line (HUV-EC-C) was plated in a 96-well plate (5.0×10^3 cells/well) in 100 μL EGM complete media and incubated for 24 h prior to the addition of the compound of interest. The cells were pretreated for 1 h with the test compound in DMSO prior to stimulation with tumor necrosis factor-α (10 ng/mL). The cells were incubated for an additional 24 h before harvest. At time of harvest, the cells were rinsed in 200 μL PBS, and cell lysis solution (70 μL) was then added the cells for 10 min. mRNA was then prepared using the “mRNA Catcher PLUS plate” (Invitrogen), according to the protocol supplied.
The eluted mRNA was then used in a one-step quantitative real-time PCR reaction, using components of the UltraSense kit together with Applied Biosystems primer-probe mixes. 10 μL of template was amplified with 1.75 μL of hVCAM-1 primer-probe, and 1 μL of hCyclophilin primer probe, and the reaction was carried out in multiplex. Real-time PCR data was analyzed, normalizing the Ct values for hVCAM-1 to hCyclophilin, prior to determining the fold induction of each unknown sample, relative to the control.
For orientation: Quantitative PCR measures a nucleic acid by following its amplification.

In the case of `COc1cc(OCCOCc2ccccc2)cc2nc(-c3cc(C)c(O)c(C)c3)[nH]c(=O)c12` [Example 5, 7-(2-benzyloxy-ethoxy)-2-(4-hydroxy-3,5-dimethyl-phenyl)-5-methoxy-3H-quinazolin-4-one], the “Inhibition of IL-6 expression” value in the experiment with hIL-6 mRNA is given as “Active”. The “Inhibition of VCAM-1 expression” value with hVCAM-1 mRNA is “Active”.

Take `Cc1cc(-c2nc3cc(OCCN(C)C)ccc3c(=O)[nH]2)cc(C)c1O` [Example 7, 7-(2-dimethylamino-ethoxy)-2-(4-hydroxy-3,5-dimethylphenyl)-3H-quinazolin-4-one]: the “Inhibition of IL-6 expression” value in the experiment on hIL-6 mRNA is on record as “Active”. Moreover, the “Inhibition of VCAM-1 expression” value in the experiment with hVCAM-1 mRNA is listed as “Active”.

`Cc1cc(-c2nc3ccc(Nc4ccccn4)cc3c(=O)[nH]2)cc(C)c1O` [Example 9, 2-(4-hydroxy-3,5-dimethyl-phenyl)-6-(pyridin-2-ylamino)-3H-quinazolin-4-one]: the “Inhibition of IL-6 expression” value with hIL-6 mRNA is given as “Active”. Further, the “Inhibition of VCAM-1 expression” value with hVCAM-1 mRNA is “Active”.

As to `Cc1cc(-c2nc3ccc(CN4CCN(C)CC4)cc3c(=O)[nH]2)cc(C)c1O` [Example 10, 2-(4-hydroxy-3,5-dimethylphenyl)-6-((4-methylpiperazin-1-yl)methyl)quinazolin-4(3H)-one], the “Inhibition of IL-6 expression” value with hIL-6 mRNA is “Active”. In addition, the “Inhibition of VCAM-1 expression” value in the experiment with hVCAM-1 mRNA is recorded as “Active”.

With `Cc1cc(-c2nc3cc(F)cc(F)c3c(=O)[nH]2)cc(C)c1OCCO` [Example 15, 5,7-difluoro-2-(4-(2-hydroxyethoxy)-3,5-dimethylphenyl)quinazolin-4(3H)-one], in the experiment on hIL-6 mRNA, the “Inhibition of IL-6 expression” value is “Active”. Moreover, the “Inhibition of VCAM-1 expression” value in the experiment with hVCAM-1 mRNA is “Inactive”.

On to `Cc1cc(-c2nc3ccc(CN4CCOCC4)cc3c(=O)[nH]2)cc(C)c1OCCO` [Example 17, 2-[4-(2-hydroxyethoxy)-3,5-dimethyl-phenyl]-6-morpholin-4-ylmethyl-3H-quinazolin-4-one], for which the “Inhibition of IL-6 expression” value with hIL-6 mRNA is “Active”. Moreover, the “Inhibition of VCAM-1 expression” value in the experiment with hVCAM-1 mRNA is recorded as “Inactive”.

Regarding `COc1cc(OC)c2c(=O)[nH]c(-c3cc(C)c(OCC(O)CO)c(C)c3)nc2c1` (stereo not drawn) [Example 18, 2-[4-(2,3-Dihydroxy-propoxy)-3,5-dimethyl-phenyl]-5,7-dimethoxy-3H-quinazolin-4-one], in the experiment with hIL-6 mRNA, the “Inhibition of IL-6 expression” value is given as “Active”. Further, the “Inhibition of VCAM-1 expression” value with hVCAM-1 mRNA is given as “Active”.

For `COc1cc(OC)c2c(=O)[nH]c(-c3ccc(OCCO)cc3)nc2c1` [Example 20, 2-[4-(2-hydroxy-ethoxy)-phenyl]-5,7-dimethoxy-3H-quinazolin-4-one], in the experiment on hIL-6 mRNA, the “Inhibition of IL-6 expression” value is listed as “Active”. Besides, the “Inhibition of VCAM-1 expression” value with hVCAM-1 mRNA is reported as “Active”.

For `COc1cc(OC)c2c(=O)[nH]c(-c3ccc(OCCO)c4ccccc34)nc2c1` [Example 21, 2-[4-(2-hydroxy-ethoxy)-naphthalen-1-yl]-5,7-dimethoxy-3H-quinazolin-4-one], the “Inhibition of IL-6 expression” value with hIL-6 mRNA is on record as “Active”. For the same compound, the “Inhibition of VCAM-1 expression” value with hVCAM-1 mRNA is listed as “Inactive”.

Take `COc1cc(OC)c2c(=O)[nH]c(-c3ccc4oc(CO)cc4c3)nc2c1` [Example 22, 2-(2-hydroxymethyl-benzofuran-5-yl)-5,7-dimethoxy-3H-quinazolin-4-one]: the “Inhibition of IL-6 expression” value in the experiment on hIL-6 mRNA is given as “Active”. Besides, the “Inhibition of VCAM-1 expression” value in the experiment on hVCAM-1 mRNA is listed as “Active”.

On to `COc1cc(OCCOCc2ccccc2)cc2nc(-c3cc(C)c(OCCO)c(C)c3)[nH]c(=O)c12` [Example 23, 7-(2-benzyloxy-ethoxy)-2-[4-(2-hydroxy-ethoxy)-3,5-dimethyl-phenyl]-5-methoxy-3H-quinazolin-4-one], for which the “Inhibition of IL-6 expression” value in the experiment on hIL-6 mRNA is “Active”. Moreover, the “Inhibition of VCAM-1 expression” value in the experiment on hVCAM-1 mRNA is recorded as “Active”.

Consider `CNC(=O)COc1c(C)cc(-c2nc3cc(OC)cc(OC)c3c(=O)[nH]2)cc1C` [Example 25, 2-[4-(5,7-dimethoxy-4-oxo-3,4-dihydro-quinazolin-2-yl)-2,6-dimethyl-phenoxy]-N-methyl-acetamide], for which the “Inhibition of IL-6 expression” value with hIL-6 mRNA was “Active”. The “Inhibition of VCAM-1 expression” value with hVCAM-1 mRNA is recorded as “Active”.

In the case of `COc1ccc(NC(=O)COc2c(C)cc(-c3nc4cc(OC)cc(OC)c4c(=O)[nH]3)cc2C)cc1` [Example 26, 2-[4-(5,7-Dimethoxy-4-oxo-3,4-dihydro-quinazolin-2-yl)-2,6-dimethyl-phenoxy]-N-(4-methoxy-phenyl)-acetamide], the “Inhibition of IL-6 expression” value with hIL-6 mRNA is “Active”. Besides, the “Inhibition of VCAM-1 expression” value with hVCAM-1 mRNA is recorded as “Active”.

In the case of `COc1cc(OC)c2c(=O)[nH]c(-c3cc(C)c(OCCCCO)c(C)c3)nc2c1` [Example 28, 2-[4-(4-hydroxy-butoxy)-3,5-dimethyl-phenyl]-5,7-dimethoxy-3H-quinazolin-4-one], in the experiment on hIL-6 mRNA, the “Inhibition of IL-6 expression” value is recorded as “Active”. The “Inhibition of VCAM-1 expression” value in the experiment on hVCAM-1 mRNA is on record as “Active”.

With `Cc1cc(-c2nc3cc(Cl)ccc3c(=O)[nH]2)cc(C)c1OCCO` [Example 29, 7-chloro-2-(4-(2-hydroxyethoxy)-3,5-dimethylphenyl)quinazolin-4(3H)-one], the “Inhibition of IL-6 expression” value with hIL-6 mRNA is “Active”. The “Inhibition of VCAM-1 expression” value with hVCAM-1 mRNA was “Active”.

`Cc1cc(-c2nc3c(Cl)cccc3c(=O)[nH]2)cc(C)c1OCCO` [Example 30, 8-chloro-2-(4-(2-hydroxyethoxy)-3,5-dimethylphenyl)quinazolin-4(3H)-one]: the “Inhibition of IL-6 expression” value in the experiment on hIL-6 mRNA is “Active”. The “Inhibition of VCAM-1 expression” value with hVCAM-1 mRNA is recorded as “Inactive”.

`COc1cccc2c(=O)[nH]c(-c3cc(C)c(OCCO)c(C)c3)nc12` [Example 31, 2-(4-(2-hydroxyethoxy)-3,5-dimethylphenyl)-8-methoxyquinazolin-4(3H)-one]: in the experiment on hIL-6 mRNA, the “Inhibition of IL-6 expression” value is reported as “Active”. In addition, the “Inhibition of VCAM-1 expression” value in the experiment with hVCAM-1 mRNA is given as “Active”.

With `Cc1cc(-c2nc3cccc(Cl)c3c(=O)[nH]2)cc(C)c1OCCO` [Example 32, 5-chloro-2-(4-(2-hydroxyethoxy)-3,5-dimethylphenyl)quinazolin-4(3H)-one], the “Inhibition of IL-6 expression” value in the experiment on hIL-6 mRNA is “Active”. Besides, in the experiment on hVCAM-1 mRNA, the “Inhibition of VCAM-1 expression” value is “Active”.

With `COc1ccc2c(=O)[nH]c(-c3cc(C)c(OCCO)c(C)c3)nc2c1` [Example 33, 2-(4-(2-hydroxyethoxy)-3,5-dimethylphenyl)-7-methoxyquinazolin-4(3H)-one], in the experiment on hIL-6 mRNA, the “Inhibition of IL-6 expression” value is on record as “Active”. In addition, in the experiment on hVCAM-1 mRNA, the “Inhibition of VCAM-1 expression” value was “Active”.

Take `Cc1cc(-c2nc3ccc(CN4CCN(C)CC4)cc3c(=O)[nH]2)cc(C)c1OCCO` [Example 34, 2-(4-(2-hydroxyethoxy)-3,5-dimethylphenyl)-6-((4-methylpiperazin-1-yl)methyl)quinazolin-4(3H)-one]: in the experiment with hIL-6 mRNA, the “Inhibition of IL-6 expression” value is “Active”. Besides, in the experiment with hVCAM-1 mRNA, the “Inhibition of VCAM-1 expression” value is recorded as “Active”.

As for `COc1cc(OC)c2c(=O)[nH]c(-c3ccc(OCCNc4nnc(-c5ccccc5)[nH]4)c(C)c3)nc2c1` [Example 35, 5,7-Dimethoxy-2-{3-methyl-4-[2-(5-phenyl-4H-[1,2,4]triazol-3-ylamino)-ethoxy]-phenyl}-3H-quinazolin-4-one], the “Inhibition of IL-6 expression” value in the experiment on hIL-6 mRNA is recorded as “Active”. The “Inhibition of VCAM-1 expression” value in the experiment on hVCAM-1 mRNA is “Active”.

`COc1cc(OC)c2c(=O)[nH]c(-c3cc(C)c(OCCNc4nc(C)no4)c(C)c3)nc2c1` [Example 36, 2-{3,5-Dimethyl-4-[2-(3-methyl-[1,2,4]oxadiazol-5-ylamino)-ethoxy]-phenyl}-5,7-dimethoxy-3H-quinazolin-4-one]: the “Inhibition of IL-6 expression” value in the experiment with hIL-6 mRNA is reported as “Active”. In addition, in the experiment with hVCAM-1 mRNA, the “Inhibition of VCAM-1 expression” value is reported as “Active”.

In the case of `COc1cc(OC)c2c(=O)[nH]c(-c3cc(C)c(OCCNC(C)=O)c(C)c3)nc2n1` [Example 37, N-{2-[4-(5,7-dimethoxy-4-oxo-3,4-dihydro-pyrido[2,3-d]pyrimidin-2-yl)-2,6-dimethyl-phenoxy]-ethyl}-acetamide], in the experiment with hIL-6 mRNA, the “Inhibition of IL-6 expression” value was “Active”. Besides, in the experiment on hVCAM-1 mRNA, the “Inhibition of VCAM-1 expression” value was “Inactive”.

As to `COc1cc(OC)c2c(=O)[nH]c(-c3cc(C)c(CNC(C)=O)c(C)c3)nc2c1` [Example 38, N-(4-(5,7-dimethoxy-4-oxo-3,4-dihydroquinazolin-2-yl)-2,6-dimethylbenzyl)acetamide], the “Inhibition of IL-6 expression” value in the experiment with hIL-6 mRNA was “Active”. For the same compound, the “Inhibition of VCAM-1 expression” value with hVCAM-1 mRNA is “Active”.
